Results: BindingDB's records for doi:10.7270/Q2RF5SF5 (Burnham Center For Chemical Genomics, 2008)

Target: Heat shock 70 kDa protein 1A (Homo sapiens, UniProt V9GZ37)
Assay: Hsp70 inhibitors, biochemical, TR-FRET (AID 786)

Sequence of Heat shock 70 kDa protein 1A (V9GZ37 whole entry): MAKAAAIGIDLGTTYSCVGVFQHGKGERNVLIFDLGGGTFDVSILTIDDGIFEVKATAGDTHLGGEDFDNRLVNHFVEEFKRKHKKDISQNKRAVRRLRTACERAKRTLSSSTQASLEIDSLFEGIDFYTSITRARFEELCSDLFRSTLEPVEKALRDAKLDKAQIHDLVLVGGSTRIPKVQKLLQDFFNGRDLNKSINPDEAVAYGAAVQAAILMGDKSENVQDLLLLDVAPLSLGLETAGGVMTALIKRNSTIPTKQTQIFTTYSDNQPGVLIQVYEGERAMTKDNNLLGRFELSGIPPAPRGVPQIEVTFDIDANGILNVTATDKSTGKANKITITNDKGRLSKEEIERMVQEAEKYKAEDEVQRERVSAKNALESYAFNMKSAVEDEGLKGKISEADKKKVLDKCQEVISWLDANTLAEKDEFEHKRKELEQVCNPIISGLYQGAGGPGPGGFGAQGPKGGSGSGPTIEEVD

IC50	SMILES
> 100 µM	CC(=O)N1CCC2(CC1)c1c(n[nH]c1C)OC(=N)C2C#N (configuration not stated) [6-azanyl-1'-ethanoyl-3-methyl-spiro[2H-pyrano[2,3-c]pyrazole-4,4'-piperidine]-5-carbonitrile]
17.4 µM	C=c1[nH]n(-c2cccc(C(=O)O)c2)c(=O)c1=CC=Cc1ccco1 [SMR000113614]
